Assay results reported in patent US11046710B2, “Sulfonamide compounds” (DAIICHI SANKYO COMPANY, LIMITED, priority 2016, dated 2021).

Tested on: plasma ALP (80-90% containing TNAP)
Experiment: Inhibitory test of plasma TNAP activity in B6 mouse
Format: in vivo
Conditions: oral, average 0-6 h after administration
Experimental: After blood sampling from the tail vein using a heparin-treated hematocrit capillary tube (EM Meister Hematocrit Capillary Tube, AS ONE Corp.) (as the sample before compound administration), each test compound suspended in a 0.5% methylcellulose solution (powder purchased from Wako Pure Chemical Industries, Ltd. was adjusted to 0.5% with Otsuka distilled water) was administered orally to the mouse. 1, 2, 4, 6, and 24 hours after the administration, blood was collected from the tail vein using a heparin-treated hematocrit capillary tube to obtain a plasma sample. The plasma sample was added to an assay buffer (1 M Tris, 1 M MgCl2, 20 mM ZnCl2, and water, pH 7.5), and the mixture was left standing for 5 minutes. Then, the absorbance at 405 nm was measured and used as a blank. The substrate pNPP was added to the plasma sample and incubated at room temperature for 180 minutes. Then, the absorbance (ABS: 405 nm) was measured using a microplate reader (model plus 384, Molecular Devices, LLC), and the concentration of produced p-nitrophenol was calculated. The blank was subtracted from all measurement values to calculate TNAP activity at each time point with the TNAP activity of the sample before compound administration defined as 100%. The pharmaceutical effect of the test compound was evaluated by the average inhibition of plasma ALP (80-90% containing TNAP) activity for 6 hours from 0 hour to 6 hour after the administration of the test compound. It was calculated according to the following expression: 100−((plasma ALP activity at 0 hr+plasma ALP activity at 1 hr)*½+(plasma ALP activity at 1 hr+plasma ALP activity at 2 hr)*½+(plasma ALP activity at 2 hr+plasma ALP activity at 4 hr)*2/2+(plasma ALP activity at 4 hr+plasma ALP activity at 6 hr)*2/2)/6 The results are shown in Table 2.

SMILES | Plasma ALP inhibition (6 h ave. inhibition %) (dose 3 mg/kg) | Plasma ALP inhibition (6 h ave. inhibition %) (dose 1 mg/kg) | also measured
COc1ccc(Cl)cc1S(=O)(=O)[N-]c1cnc2c(c1)-c1ccnn1CCO2.[K+] [Example 8, Potassium [(5-chloro-2-methoxyphenyl)sulfonyl](5,6-dihydropyrazolo[1,5-d]pyrido[3,2-f][1,4]oxazepin-10-yl)azanide] | 29.4% | – | –
CCOc1ccc(F)cc1S(=O)(=O)[N-]c1cnc2c(c1)-c1ccnn1CCO2.[K+] [Example 10, Potassium 5,6-dihydropyrazolo[1,5-d]pyrido[3,2-f][1,4]oxazepin-10-yl[(2-ethoxy-5-fluorophenyl)sulfonyl]azanide] | 43.3% | – | –
CCOc1ncc(F)cc1S(=O)(=O)[N-]c1cnc2c(c1)-c1ccnn1CCO2.[K+] [Example 15, Potassium 5,6-dihydropyrazolo[1,5-d]pyrido[3,2-f][1,4]oxazepin-10-yl[(2-ethoxy-5-fluoropyridin-3-yl)sulfonyl]azanide] | 61.4% | – | –
CCOc1ccc(F)cc1S(=O)(=O)[N-]c1cnc2c(c1)-c1ccnn1[C@@H](C)CO2.[K+] [Example 19, Potassium [(2-ethoxy-5-fluorophenyl)sulfonyl][(5S)-5-methyl-5,6-dihydropyrazolo[1,5-d]pyrido[3,2-f][1,4]oxazepin-10-yl]azanide] | 27.5% | – | –
COc1ncc(Cl)cc1S(=O)(=O)[N-]c1cnc2c(c1)-c1ccnn1[C@@H](C)CO2.[K+] [Example 22, potassium [(5-chloro-2-methoxypyridin-3-yl)sulfonyl][(5S)-5-methyl-5,6-dihydropyrazolo[1,5-d]pyrido[3,2-f][1,4]oxazepin-10-yl]azanide] | 28.4% | – | –
CCOc1ncc(F)cc1S(=O)(=O)[N-]c1cnc2c(c1)-c1ccnn1[C@@H](C)CO2.[K+] [Example 25, potassium [(2-ethoxy-5-fluoropyridin-3-yl)sulfonyl][(5S)-5-methyl-5,6-dihydropyrazolo[1,5-d]pyrido[3,2-f][1,4]oxazepin-10-yl]azanide] | 55.5% | – | –
O=C1c2cc([N-]S(=O)(=O)c3cc(Cl)ccc3OC(F)(F)F)cnc2OC[C@H]2C[C@H](O)CN12.[K+] [Example 33, Potassium {[5-chloro-2-(trifluoromethoxy)phenyl]sulfonyl}[(8S,9aR)-8-hydroxy-5-oxo-8,9,9a,10-tetrahydro-5H,7H-pyrido[3,2-f]pyrrolo[2,1-c][1,4]oxazepin-3-yl]azanide] | – | – | Plasma ALP inhibition (6 h ave. inhibition %) (dose 0.3 mg/kg): 59.0%
O=C1c2cc([N-]S(=O)(=O)c3cc(Cl)ccc3OC(F)(F)F)cnc2OC[C@H]2C[C@@H](O)CN12.[K+] [Example 38, Potassium {[5-chloro-2-(trifluoromethoxy)phenyl]sulfonyl}[(8R,9aR)-8-hydroxy-5-oxo-8,9,9a,10-tetrahydro-5H,7H-pyrido[3,2-f]pyrrolo[2,1-c][1,4]oxazepin-3-yl]azanide] | – | – | Plasma ALP inhibition (6 h ave. inhibition %) (dose 0.3 mg/kg): 65.5%
O=C1c2cc([N-]S(=O)(=O)c3cc(Cl)ccc3OC(F)(F)F)cnc2OC[C@H]2[C@@H](O)CCN12.[K+] [Example 43, Potassium {[5-chloro-2-(trifluoromethoxy)phenyl]sulfonyl}[(9S,9aS)-9-hydroxy-5-oxo-8,9,9a,10-tetrahydro-5H,7H-pyrido[3,2-f]pyrrolo[2,1-c][1,4]oxazepin-3-yl]azanide] | – | – | Plasma ALP inhibition (6 h ave. inhibition %) (dose 0.3 mg/kg): 65.5%
CNC(=O)O[C@H]1C[C@@H]2COc3ncc([N-]S(=O)(=O)c4cc(Cl)ccc4OC)cc3C(=O)N2C1.[K+] [Example 49, Potassium [(5-chloro-2-methoxyphenyl)sulfonyl]{(8S,9aR)-8-[(methylcarbamoyl)oxy]-5-oxo-8,9,9a,10-tetrahydro-5H,7H-pyrido[3,2-f]pyrrolo[2,1-c][1,4]oxazepin-3-yl}azanide] | – | 52.8% | –
COC(=O)N[C@@H]1C[C@@H]2COc3ncc([N-]S(=O)(=O)c4cc(Cl)ccc4OC)cc3C(=O)N2C1.[K+] [Example 51, Potassium [(5-chloro-2-methoxyphenyl)sulfonyl]{(8R,9aR)-8-[(methoxycarbonyl)amino]-5-oxo-8,9,9a,10-tetrahydro-5H, 7H-pyrido[3,2-f]pyrrolo[2,1-c][1,4]oxazepin-3-yl}azanide] | – | 59.7% | –
COc1ccc(Cl)cc1S(=O)(=O)[N-]c1cnc2c(c1)CN1C(=O)[C@@H](O)C[C@H]1CO2.[K+] [Example 55, Potassium [(5-chloro-2-methoxyphenyl)sulfonyl][(8S,9aS)-8-hydroxy-7-oxo-8,9,9a,10-tetrahydro-5H,7H-pyrido[3,2-f]pyrrolo[2,1-c][1,4]oxazepin-3-yl]azanide] | – | 65.7% | –
CCOc1ccc(F)cc1S(=O)(=O)[N-]c1cnc2c(c1)CN1C(=O)COC[C@H]1CO2.[K+] [Example 62, Potassium [(2-ethoxy-5-fluorophenyl)sulfonyl][(10aS)-7-oxo-7,8,10a,11-tetrahydro-5H,10H-[1,4]oxazino[3,4-c]pyrido[3,2-f][1,4]oxazepin-3-yl]azanide] | – | 76.0% | –
